The numbers were not newly measured in patent US8653094B2, “Solid forms of (S)-ethyl 2-amino-3-(4-(2-amino-6-((R)-1-(4-chloro-2-(3-methyl-1H-pyrazol-1-yl)phenyl)-2,2,2-trifluoroethoxy)-pyrimidin-4-yl)phenyl)propanoate and methods of their use” (Lexicon Pharmaceuticals, Inc., priority 2007, dated 2014), which cites them from elsewhere.

Data set [1] has as its system peripheral serotonin levels. Particulars: when administered to animals; see U.S. patent application No. 60/874,596.
A further data set concerns tryptophan hydroxylase. Particulars: statement in words; see U.S. patent application No. 60/874,596.

Consider `CCOC(=O)[C@@H](N)Cc1ccc(-c2cc(O[C@H](c3ccc(Cl)cc3-n3ccc(C)n3)C(F)(F)F)nc(N)n2)cc1` [(S)-ethyl 2-amino-3-(4-(2-amino-6-((R)-1-(4-chloro-2-(3-methyl-1H-pyrazol-1-yl)phenyl)-2,2,2-trifluoroethoxy)pyrimidin-4-yl)phenyl)propanoate], for which the “effect on peripheral serotonin levels” value in data set [1] is on record as “decreases peripheral serotonin levels”. Moreover, in the data set on tryptophan hydroxylase, the tryptophan hydroxylase inhibition entry is given as “inhibitor of tryptophan hydroxylase”.
